Like-named read-outs stand apart in the source and are kept apart here.
Assays:
glycogen (GAA substrate) = test: Tissue glycogen levels in GAA knock-out mice after repeat rhGAA with chaperone; assay type: in vivo, mouse; settings: 21 days after last injection
Experimental: Twelve week old GAA KO mice were administered recombinant human GAA (Myozyme) 20 mg/kg i.v. every other week for 8 weeks. […]
Repeat rhGAA administration studies were conducted in GAA knock-out mice to assess effects on tissue glycogen levels.
Twelve week old GAA KO mice were administered 20 mg/kg i.v. recombinant human GAA (Myozyme) every other week for 8 weeks. […] Tissues were collected 21 days after the last dose of rhGAA and the level of glycogen (GAA substrate) was measured.

[1] = AT2220 concentration in muscle biopsies by LC-MS/MS in Pompe patients; assay type: in vivo, human; settings: for muscle concentrations from Day 3 or Day 7 biopsies: 50 mg and 100 mg, lower limit of quantitation 8 ng/g; for concentration at 7 day / concentration at 3 day: human, muscle, oral, read-out: Muscle AT2220 Conc
Excerpt: GAA enzyme activity will be examined in muscle biopsy samples. One piece of muscle tissue will be removed as described in Table 1. GAA activity in muscle will be determined by a validated assay measuring enzyme activity using 4-MUG, with and without Con A. GAA protein levels will be measured by Western blotting using anti-human GAA antibody. 1-deoxynojirimycin hydrochloride concentrations in muscle samples collected in Period 2 will be determined using a validated LC-MS/MS assay.

[2] = Cmax following 30 mg/kg oral AT2220 or AT2221 in mice; assay type: in vivo; settings: mouse, plasma
[3] = Safety assessment in Pompe patients (adverse events, urine Hex4, CPK, ALT/AST, muscle strength); assay type: in vivo, human; settings: for Adverse event: Intensity / Adverse event: Relation to Study Drug? / Adverse event: Was Event Serious?: per adverse event
Excerpt: Dose escalation to the next dose level of 1-deoxynojirimycin hydrochloride may proceed following review of safety and tolerability data from the previous dose level group(s). Safety data reviewed will include adverse events (including infusion reactions), clinical laboratory tests (including creatine kinase, LDH (LDH-5), alkaline phosphatase, AST, ALT), Hex4, 12-Lead ECGs, physical examinations, muscle strength tests and vital signs.
Safety parameters will be assessed by review of changes in physical exam findings, vital signs, ECG changes over time, clinical labs, Hex4 and adverse events.
Blood samples for clinical laboratory tests (hematology, serum chemistry) and urinalyses will be collected according to the schedule in Table 1. • Hematology tests include total hemoglobin, hematocrit, erythrocyte, platelet and leukocyte counts with differential. • Coagulation (screening only) includes INR and aPTT. • Serum chemistry includes measurement of AST, ALT, alkaline phosphatase, total bilirubin, creatinine, creatine kinase, urea, glucose, calcium, sodium, potassium, magnesium, total protein, albumin, bicarbonate, LDH (LDH-5), blood urea nitrogen, chloride, and phosphate. • Urinalysis includes color, appearance, specific gravity, pH, protein, glucose, ketones, blood, leukocyte esterase, nitrite, bilirubin, urobilinogen and microscopy of sediment
Muscular strength tests, assessed by hand held dynamometer, will be conducted at Screening, Days −1 and 7 of each period and at Follow-up. Proximal and distal muscle groups will be evaluated.

GAA = GAA (Homo sapiens, UniProt P10253); test: Physical stability of rhGAA in neutral pH buffer (thermal denaturation, enzymatic activity); assay type: biochemical; design: purchased Genzyme Corporation; settings: thermal denaturation and enzymatic activity
[4] = co-administration with rhGAA 20 mg/kg IV every other week for 8 weeks

OC[C@H]1NC[C@H](O)[C@@H](O)[C@@H]1O [AT2220, (2R,3R,4R,5S)-2-hydroxymethyl-piperidine-3,4,5-triol]
tissue glycogen levels (glycogen (GAA substrate); 10 or 30 mg/kg PO 30 min before rhGAA 20 mg/kg IV every other week for 8 weeks): dose-dependent reduction | glycogen reduction vs rhGAA alone, biceps (glycogen (GAA substrate); [4]): ~1.4 fold | glycogen reduction vs rhGAA alone, diaphragm (glycogen (GAA substrate); [4]): ~1.6 fold | glycogen reduction vs rhGAA alone, gastrocnemius (glycogen (GAA substrate); [4]): ~2.7 fold | glycogen reduction vs rhGAA alone, heart (glycogen (GAA substrate); [4]): approximately 2.3 fold | glycogen reduction vs rhGAA alone, quadriceps (glycogen (GAA substrate); [4]): ~2.6 fold | glycogen reduction vs rhGAA alone, soleus (glycogen (GAA substrate); [4]): ~1.2 fold | glycogen reduction vs rhGAA alone, tongue (glycogen (GAA substrate); [4]): ~1.3 fold | glycogen reduction vs rhGAA alone, triceps (glycogen (GAA substrate); [4]): ~2.2 fold | muscle concentrations from Day 3 or Day 7 biopsies [1]: either below or near the lower limit of quantitation | muscle concentrations from Day 3 or Day 7 biopsies ([1]; listed as 1-DNJ-HCl): either below or just above the lower limit of quantification | Muscle AT2220 Conc ([1]; Cohort 2, 100 mg AT2220, Period 2, biopsy Day 3, individual subjects, LLOQ = 8.0 ng/g (16.0 or […] for diluted samples)): BLQ^c | muscle AT2220 concentrations ([1]; Cohort 3 (250 mg) vs lower doses, preliminary): Dose-related increases | subjects with a quantifiable AT2220 concentration in muscle ([1]; Cohort 3 (250 mg), biopsies 3 or 7 days post dose, preliminary): 4 of 6 | Muscle AT2220 Conc ([1]; Cohort 3, 250 mg AT2220, Period 2, biopsy Day 7, individual subjects, LLOQ = 8.0 ng/g (16.0 or […] for diluted samples)): 27.9 ng/g | Muscle AT2220 Conc ([1]; Patient D, 50 mg, Period 2, Day 7, LLOQ = 8.0 ng/g): BLQ | Muscle AT2220 Conc ([1]; Patient F, 100 mg, Period 2, Day 7, sample diluted 2-fold, LLOQ = […]): BLQ^b | Muscle AT2220 Conc ([1]; Patient G, 100 mg, Period 2, Day 7, LLOQ = 8.0 ng/g): BLQ | Muscle AT2220 Conc ([1]; Patient H, 100 mg, Period 2, Day 3, sample diluted 2-fold, LLOQ = […]): BLQ^b | Muscle AT2220 Conc ([1]; Patient I, 100 mg, Period 2, Day 7, sample diluted 2-fold, LLOQ = […]): BLQ^b | Muscle AT2220 Conc ([1]; Patient J, 100 mg, Period 2, Day 3, sample diluted 3-fold, LLOQ = […]): BLQ^c | clearance from muscle ([1]; all four cohorts, Day 7): cleared from muscle to near-undetectable levels by Day 7 | concentration at 7 day ([1]; 50 mg, Cohort 1, 50 mg AT2220, Period 2, biopsy Day 7, individual subjects, LLOQ = 8.0 ng/g (16.0 or […] for diluted samples)): 13.1 ng/g | concentration at 7 day ([1]; 50 mg, Patient A, 50 mg, Period 2, Day 7, LLOQ = 8.0 ng/g): 11.8 ng/g | concentration at 7 day ([1]; 50 mg, Patient B, 50 mg, Period 2, Day 7, LLOQ = 8.0 ng/g): 10 ng/g | concentration at 7 day ([1]; 50 mg, Patient C, 50 mg, Period 2, Day 7, LLOQ = 8.0 ng/g): 13.1 ng/g | concentration at 3 day ([1]; 100 mg, Cohort 2, 100 mg AT2220, Period 2, biopsy Day 3, individual subjects, LLOQ = 8.0 ng/g (16.0 or […] for diluted samples)): 17.8 ng/g | concentration at 3 day ([1]; 100 mg, Patient E, 100 mg, Period 2, Day 3, LLOQ = 8.0 ng/g): 17.8 ng/g | concentration at 3 day ([1]; 250 mg, Cohort 3, 250 mg AT2220, Period 2, biopsy Day 3, individual subjects, LLOQ = 8.0 ng/g (16.0 or […] for diluted samples)): 54.4 ng/g | concentration at 7 day ([1]; 250 mg, Cohort 3, 250 mg AT2220, Period 2, biopsy Day 7, individual subjects, LLOQ = 8.0 ng/g (16.0 or […] for diluted samples)): 28.1 ng/g | Cmax [2]: ~40 µM | Adverse event: Intensity ([3]; Cohort 1 (50 mg 1-DNJ-HCl)): Mild | Adverse event: Relation to Study Drug? ([3]; Cohort 1 (50 mg 1-DNJ-HCl)): Unrelated | Adverse event: Was Event Serious? ([3]; Cohort 1 (50 mg 1-DNJ-HCl)): No | ALT/AST ([3]; Cohort 1 (50 mg), 4 subjects): No drug related elevations | CPK ([3]; Cohort 1 (50 mg), 4 subjects): no drug related elevations beyond subjects' baseline values range | Muscle strength ([3]; Cohort 1 (50 mg), 4 subjects): No change between Periods 1 and 2 | SAE / drug-related AEs ([3]; Cohort 1 (50 mg), 4 subjects): No SAE or drug-related AEs | Urine Hex4 ([3]; Cohort 1 (50 mg), 4 subjects): no drug related elevations | Adverse event: Intensity ([3]; Cohort 2 (100 mg 1-DNJ-HCl)): Mild | Adverse event: Relation to Study Drug? ([3]; Cohort 2 (100 mg 1-DNJ-HCl)): Unrelated | Adverse event: Was Event Serious? ([3]; Cohort 2 (100 mg 1-DNJ-HCl)): No | ALT/AST ([3]; Cohort 2 (100 mg), 5 subjects): No drug related elevations | CPK ([3]; Cohort 2 (100 mg), 5 subjects): no drug related elevations beyond subjects' baseline range | Hex4 ([3]; Cohort 2 (100 mg), 5 subjects): no drug related elevations | Muscle strength ([3]; Cohort 2 (100 mg), 5 subjects): No change between Periods 1 and 2 | SAE / drug-related AEs ([3]; Cohort 2 (100 mg), 5 subjects): No SAE or drug-related AEs | Adverse Event ([3]; Cohort 2 (rhGAA alone, then rhGAA + 100 mg 1-DNJ-HCl), per patient): None | CPK levels ([3]; Cohorts 1 and 2): did not appreciably change from baseline | relation of reported adverse events to drug ([3]; Cohorts 1 and 2, only mild, transient adverse events reported): none of which were related to AT2220 | urine hex 4 levels ([3]; following a single dose of AT2220, Cohorts 1 and 2): either did not change from baseline, or did not show any consistent trend | tolerability ([3]; single doses co-administered with ERT, Cohorts 1-4 (50-600 mg)): well-tolerated, with no drug-related adverse events reported | safety and tolerability ([3]; single doses of 50 mg and 100 mg, patients with Pompe Disease): safe and well-tolerated | physical stability of rhGAA (GAA): significant concentration-dependent increases

Reference: patent publication US20150086530A1, “DOSING REGIMENS FOR THE TREATMENT OF POMPE DISEASE” (Amicus Therapeutics, Inc., priority 2012, published 2015)
